Assay results reported in publication PMC11124822, “Discovery and Anticancer Screening of Novel Oxindole-Based Derivative Bearing Pyridyl Group as Potent and Selective Dual FLT3/CDK2 Kinase Inhibitor” (Pharmaceuticals, 2024).

Assays:
MDA-MB-231 = test: NCI-60 antiproliferative screen (SRB); format: cell-based, human; settings: Homo sapiens; 10 µM single dose, 48 h; MDA-MB-231 (Breast); read-out: Growth inhibition (%)
[1] = test system: NCI-60 human cancer cell lines; test: NCI-60 screen, full panel summary; format: cell-based; settings: 10 µM single dose; for Mean Growth Percent: all NCI-60 cell lines
Method: In a comprehensive test, compounds were assayed at a single dose concentration (10^−5 M) in the full panel of NCI-60 cancer cell lines.

K-562 = test: NCI-60 antiproliferative screen (SRB); format: cell-based, human; settings: Homo sapiens, K562; 10 µM single dose, 48 h; K-562 (Leukemia); read-out: Growth inhibition (%)
HT29 = test: NCI-60 antiproliferative screen (SRB); format: cell-based, human; settings: Homo sapiens, HT-29; 10 µM single dose, 48 h; HT29 (Colon); read-out: Growth inhibition (%)
T-47D = test: NCI-60 antiproliferative screen (SRB); format: cell-based, human; settings: Homo sapiens, T47D; 10 µM single dose, 48 h; T-47D (Breast); read-out: Growth inhibition (%)
HCC-2998 = test: NCI-60 antiproliferative screen (SRB); format: cell-based, human; settings: Homo sapiens; 10 µM single dose, 48 h; HCC-2998 (Colon); read-out: Growth inhibition (%)
U251 = test: NCI-60 antiproliferative screen (SRB); format: cell-based, human; settings: Homo sapiens, U-251; 10 µM single dose, 48 h; U251 (CNS); read-out: Growth inhibition (%)
MDA-MB-435 = test: NCI-60 antiproliferative screen (SRB); format: cell-based, human; settings: Homo sapiens; 10 µM single dose, 48 h; MDA-MB-435 (Melanoma); read-out: Growth inhibition (%)
SW-620 = test: NCI-60 antiproliferative screen (SRB); format: cell-based, human; settings: Homo sapiens; 10 µM single dose, 48 h; SW-620 (Colon); read-out: Growth inhibition (%)
786-0 = test: NCI-60 antiproliferative screen (SRB); format: cell-based, human; settings: Homo sapiens; 10 µM single dose, 48 h; 786-0 (Renal); read-out: Growth inhibition (%)
NCI/ADR-RES = test: NCI-60 antiproliferative screen (SRB); format: cell-based, human; settings: Homo sapiens; 10 µM single dose, 48 h; NCI/ADR-RES (Ovarian); read-out: Growth inhibition (%)
SK-MEL-5 = test: NCI-60 antiproliferative screen (SRB); format: cell-based, human; settings: Homo sapiens; 10 µM single dose, 48 h; SK-MEL-5 (Melanoma); read-out: Growth inhibition (%)
HS 578T = test: NCI-60 antiproliferative screen (SRB); format: cell-based, human; settings: Homo sapiens; 10 µM single dose, 48 h; HS 578T (Breast); read-out: Growth inhibition (%)
HOP-92 = test: NCI-60 antiproliferative screen (SRB); format: cell-based, human; settings: Homo sapiens; 10 µM single dose, 48 h; HOP-92 (NSCLC); read-out: Growth inhibition (%)
COLO 205 = test: NCI-60 antiproliferative screen (SRB); format: cell-based, human; settings: Homo sapiens; 10 µM single dose, 48 h; COLO 205 (Colon); read-out: Growth inhibition (%)
SNB-75 = test: NCI-60 antiproliferative screen (SRB); settings: Homo sapiens, SNB-75, 48 h, read-out: Growth inhibition (%)
Method: Anticancer activity was tested against 60 cancer cell lines (NCI-60) after 48h treatments with a single dosage of 10 μM of compounds by using sulforhodamine B assay [39] on the traditional 96-well platform. […] The human cancer cell lines of the NCI-60 panel are grown in RPMI 1640 medium supplemented with 5% FBS (fetal bovine serum) and 2 mM L-glutamine. […] For further analysis of promising compounds, five dose screens were performed against the NCI-60 panel. Drug treatments are performed in 5 doses using 10-fold or ½ log dose dilutions.

IGROV1 = test: NCI-60 antiproliferative screen (SRB); format: cell-based, human; settings: Homo sapiens, IGROV-1; 10 µM single dose, 48 h; IGROV1 (Ovarian); read-out: Growth inhibition (%)
PC-3 = test: NCI-60 antiproliferative screen (SRB); format: cell-based, human; settings: Homo sapiens; 10 µM single dose, 48 h; PC-3 (Prostate); read-out: Growth inhibition (%)
NCI-H322M = test: NCI-60 antiproliferative screen (SRB); format: cell-based, human; settings: Homo sapiens; 10 µM single dose, 48 h; NCI-H322M (NSCLC); read-out: Growth inhibition (%)
RXF 393 = test: NCI-60 antiproliferative screen (SRB); format: cell-based, human; settings: Homo sapiens; 10 µM single dose, 48 h; RXF 393 (Renal); read-out: Growth inhibition (%)
SF-295 = test: NCI-60 antiproliferative screen (SRB); format: cell-based, human; settings: Homo sapiens; 10 µM single dose, 48 h; SF-295 (CNS); read-out: Growth inhibition (%)
SF-539 = test: NCI-60 antiproliferative screen (SRB); format: cell-based, human; settings: Homo sapiens; 10 µM single dose, 48 h; SF-539 (CNS); read-out: Growth inhibition (%)
HCT-116 = test: NCI-60 antiproliferative screen (SRB); format: cell-based, human; settings: Homo sapiens; 10 µM single dose, 48 h; HCT-116 (Colon); read-out: Growth inhibition (%)
HOP-62 = test: NCI-60 antiproliferative screen (SRB); format: cell-based, human; settings: Homo sapiens; 10 µM single dose, 48 h; HOP-62 (NSCLC); read-out: Growth inhibition (%)
M14 = test: NCI-60 antiproliferative screen (SRB); format: cell-based, human; settings: Homo sapiens; 10 µM single dose, 48 h; M14 (Melanoma); read-out: Growth inhibition (%)
TK-10 = test: NCI-60 antiproliferative screen (SRB); format: cell-based, human; settings: Homo sapiens; 10 µM single dose, 48 h; TK-10 (Renal); read-out: Growth inhibition (%)
NCI-H23 = test: NCI-60 antiproliferative screen (SRB); format: cell-based, human; settings: Homo sapiens; 10 µM single dose, 48 h; NCI-H23 (NSCLC); read-out: Growth inhibition (%)
SN12C = test: NCI-60 antiproliferative screen (SRB); format: cell-based, human; settings: Homo sapiens; 10 µM single dose, 48 h; SN12C (Renal); read-out: Growth inhibition (%)
SK-MEL-2 = test: NCI-60 antiproliferative screen (SRB); format: cell-based, human; settings: Homo sapiens; 10 µM single dose, 48 h; SK-MEL-2 (Melanoma); read-out: Growth inhibition (%)

Row | Structure (SMILES) | Positive Cytostatic Effect (cell lines with percent growth from 0 to 50 / total number of cell lines) [1] | Positive Cytotoxic Effect (cell lines with percent growth of <0 / total number of cell lines) [1] | Sensitive/Total Cell Lines [1] | Mean Growth Percent [1] | inhibition at 10 µM (K-562) [%] | melting point [°C] | inhibition at 10 µM (HT29) [%] | inhibition at 10 µM (T-47D) [%] | inhibition at 10 µM (HCC-2998) [%] | inhibition at 10 µM (U251) [%] | inhibition at 10 µM (MDA-MB-435) [%] | inhibition at 10 µM (786-0) [%] | inhibition at 10 µM (NCI/ADR-RES) [%] | inhibition at 10 µM (SK-MEL-5) [%] | inhibition at 10 µM (HOP-92) [%] | inhibition at 10 µM (COLO 205) [%] | inhibition at 10 µM (SNB-75) [%] | inhibition at 10 µM (IGROV1) [%] | inhibition at 10 µM (PC-3) [%] | inhibition at 10 µM (NCI-H322M) [%] | other results
1 | O=C1Nc2ccc(F)cc2C1=Cc1ccc(OCc2ccccc2)cc1 (mixture of isomers) [Compound 5b, (E/Z)-3-[4-(Benzyloxy)benzylidene]-5-fluoroindolin-2-one] | 0/57 | 0/57 | 0/57 | 1.62 | 7.19 | 244 to 248 | 2.38 | 3.79 | -9.12 | 0.4 | 5.59 | 0.43 | 0.01 | -0.59 | 4.77 | 1.92 | 5.15 | 2.92 | -2.77 | 2.81 | inhibition at 10 µM (MDA-MB-231): 2.43%; antiproliferative activity (in words) [1]: weak antiproliferative activity; inhibition at 10 µM ([1]; Homo sapiens, read-out: Range of Growth Inhibition on All Cells): -10.8 to 9.53%; inhibition at 10 µM (SW-620): -2.34%; inhibition at 10 µM (HS 578T): -0.32%; inhibition at 10 µM (RXF 393): 0.31%; inhibition at 10 µM (SF-295): 1.11%; inhibition at 10 µM (SF-539): 4.67%; inhibition at 10 µM (HCT-116): 4.15%; inhibition at 10 µM (HOP-62): -1.2%; inhibition at 10 µM (M14): 3.39%; inhibition at 10 µM (TK-10): 4.82%; inhibition at 10 µM (NCI-H23): 1.73%; inhibition at 10 µM (SN12C): 0.27%
2 | O=C1Nc2ccccc2C1=Cc1ccc(OCc2ccccn2)cc1 (mixture of isomers) [Compound 5e, (E/Z)-3-[4-(Pyridin-2-ylmethoxy]benzylidene) indolin-2-one] | 11/56 | 0/56 | 11/56 | 33.37 | 59.2 | 221 to 224 | 16.2 | 54.9 | 1.6 | 46.5 | 10.1 | 18 | 46.7 | 48.4 | 69 | -14.7 | 34.7 | 36.8 | 44.3 | 29.5 | The Most Sensitive Cell Line [1]: HOP-92; inhibition at 10 µM (RXF 393): 44.8%; inhibition at 10 µM (SF-295): 27%; inhibition at 10 µM (SF-539): 35.3%; inhibition at 10 µM (HCT-116): 41.1%; inhibition at 10 µM (HOP-62): 25.6%; inhibition at 10 µM (M14): 8.3%; inhibition at 10 µM (TK-10): 12.7%; inhibition at 10 µM (NCI-H23): 21.4%; inhibition at 10 µM (SK-MEL-2): -12.2%; inhibition at 10 µM (SN12C): 47.7%
3 | O=C1Nc2ccc(Cl)cc2C1=Cc1ccc(OCc2ccccn2)cc1 (mixture of isomers) [Compound 5g, (E/Z)-5-Chloro-3-[4-(pyridin-2-ylmethoxy)benzylidene] indolin-2-one] | 17/59 | 1/59 | 18/59 | 38.63 | 49 | 219 to 220 | 32.5 | 31 | -4.51 | 76.3 | 23.1 | 74.3 | 85.9 | 10.5 | 27.9 | 10.9 | -12.6 | 45.4 | 37.9 | 35.8 | inhibition at 10 µM (MDA-MB-231): 78.3%; The Most Sensitive Cell Line [1]: OVCAR-4; number of cell lines with cytostatic effects [1]: 17; number of cell lines with cytotoxic effects [1]: 1; inhibition at 10 µM (SW-620): 52.5%; inhibition at 10 µM (HS 578T): 85.2%; inhibition at 10 µM (SF-295): 15.5%; inhibition at 10 µM (SF-539): 26.5%; inhibition at 10 µM (HCT-116): 71.5%; inhibition at 10 µM (HOP-62): 54.4%; inhibition at 10 µM (M14): 10.1%; inhibition at 10 µM (TK-10): 9.89%; inhibition at 10 µM (NCI-H23): 37.8%; inhibition at 10 µM (SK-MEL-2): -11.4%; inhibition at 10 µM (SN12C): 55.5%
4 | O=C1Nc2cc(Cl)ccc2C1=Cc1ccc(OCc2ccccn2)cc1 (mixture of isomers) [Compound 5h, (E/Z)-6-Chloro-3-[4-(pyridin-2-ylmethoxy)benzylidene]indolin-2-one] | 11/56 | 0/56 | 11/56 | 30.77 | 31.4 | 260 to 263 | 19.7 | 38 | 16.7 | 61.6 | 23.9 | 18.7 | 39 | 24 | 35.8 | -3.47 | 63.3 | 26.2 | 54.7 | 24.7 | The Most Sensitive Cell Line [1]: OVCAR-4; inhibition at 10 µM (RXF 393): 38.2%; inhibition at 10 µM (SF-295): 14.3%; inhibition at 10 µM (SF-539): 57.7%; inhibition at 10 µM (HCT-116): 47.8%; inhibition at 10 µM (HOP-62): 18.9%; inhibition at 10 µM (M14): 20%; inhibition at 10 µM (TK-10): -0.24%; inhibition at 10 µM (NCI-H23): 47.4%; inhibition at 10 µM (SK-MEL-2): -10.3%; inhibition at 10 µM (SN12C): 24.9%
